US20230372319A1, “Combination Treatment of Cancer” (Ares Trading S.A., priority 2020, published 2023)
pIC50: −log10 of the molar value.

Key:
AT-3 cells = experiment: Orthotopic AT-3 breast cancer model; type: in vivo, C57BL/6 mice; details: for median survival: isotype control 13 days; for responders (mice with tumor volumes<1 σ of the control group mean): day 13 post treatment start, n=10 mice/group
Experimental: C57BL/6 mice were inoculated orthotopically with AT3 cells (0.5×10^6) in the mammary fat pad (day −11). […] Tumor volumes were measured twice weekly. In the lower plot, individual tumor volumes at day 13 are presented with a line representing the median tumor volume and error bars showing the 95% confidence intervals. […] P-values were calculated by two-way ANOVA with Tukey's post-test.
AT-3 cells were obtained from Sigma and were cultured in DMEM supplemented with 10% FBS, 1 mM sodium pyruvate, 2 mM non-essential amino acids, 15 mM HEPES, and 1×β-mercaptoethanol. […] Cells were cultured under aseptic conditions and incubated at 37° C. with 5% CO2. Cells were passaged before in vivo implantation and adherent cells were harvested with TrypLE Express.
For the efficacy study, 0.5×10^6 AT-3 cells were inoculated orthotopically into the right lower mammary at pad of C57BL/6 mice on day −11. Treatment was initiated on day 0 when average tumor volume reached ˜50 mm^3. Mice were sacrificed when tumor volumes reached ˜1000 mm^3.
Mice were randomized into treatment groups according to tumor volume on the day of treatment initiation (day 0).
The isotype control is a mutated version of anti-PD-L1, which completely lacks PD-L1 binding. In tumor-bearing mice, bintrafusp alfa (492 μg) or isotype control (400 μg) were administered with an intravenous (i.v.) injection in 0.2 mL PBS.
Radiation therapy (RT) was delivered at 8 Grey (Gy) on days 0-3.
Tumor sizes were measured twice per week with digital calipers and recorded automatically using WinWedge software. Tumor volumes were calculated with the following formula: tumor volume (mm^3)=tumor length×width×height×0.5236. Tumor growth inhibition (TGI) was calculated with the following formula: TGI (%)=[1−(Ti−T0)/(Vi−V0)]×100, where Ti is the average tumor volume (mm^3) of a treatment group on a given day, T0 is the average tumor volume of the treatment group on the first day of treatment, Vi is the average tumor volume of the vehicle control group on the same day as Ti, and V0 is the average tumor volume of the vehicle control group on the first day of treatment. To compare the percentage survival between different treatment groups, Kaplan-Meier survival curves were generated. Body weight was measured twice weekly and mice were sacrificed when their tumor volume exceeded 2,500 mm^3 for s.c. and intramuscular tumors and 1,000 mm^3 for mammary orthotopic tumors.

RENCA cells = details: BALB/c mice, day 12; bintrafusp alfa 492 μg i.v. days 0, 2, 5; niraparib 50 mg/kg p.o. days 0-11
Experimental: BALB/c mice were inoculated orthotopically with RENCA cells (0.5×10^5) in the left kidney (day −6). […] Mice were euthanized at day 12 and both kidneys were weighed. The weight of the tumor bearing left kidney was divided by the weight of the bilateral right kidney to calculate the kidney mass ratio. Individual kidney mass ratios were plotted, with a line representing the median.
The RENCA cells were obtained from ATCC (ATCC® CRL-2947™) and were cultured in RPMI-1640 with 10% heat inactivated fetal bovine serum and 0.1 mM non-essential amino acids. […] Cells were cultured under aseptic conditions and incubated at 37° C. with 5% CO2. […]
(§1) Tumor sizes were measured twice per week with digital calipers and recorded automatically using WinWedge software. Tumor volumes were calculated with the following formula: tumor volume (mm^3)=tumor length×width×height×0.5236. Tumor growth inhibition (TGI) was calculated with the following formula: TGI (%)=[1−(Ti−T0)/(Vi−V0)]×100, where Ti is the average tumor volume (mm^3) of a treatment group on a given day, T0 is the average tumor volume of the treatment group on the first day of treatment, Vi is the average tumor volume of the vehicle control group on the same day as Ti, and V0 is the average tumor volume of the vehicle control group on the first day of treatment. […]

B16F10 cells = experiment: Subcutaneous B16F10 melanoma model; type: in vivo; details: C57BL/6 mice, s.c.; bintrafusp alfa 492 μg i.v. days 0, 3, 6; niraparib 50 mg/kg p.o. QDx14; days 15/19; vs isotype control or monotherapies as stated
Experimental: C57BLJ6 mice were inoculated subcutaneously with B16F10 cells (0.5×10^6) in the flank. […] Tumor volumes were measured twice weekly and presented as mean ±SEM or as individual tumor volumes. P-values were calculated by two-way ANOVA with Tukey's or Sidak's post-test.
B16F10 cells were obtained from (ATCC) and were cultured in Dulbecco's Modified Eagle's medium (DMEM) supplemented with 10% fetal bovine serum (FBS). […] Cells were cultured under aseptic conditions and incubated at 37° C. with 5% CO2. Cells were passaged before in vivo implantation and adherent cells were harvested with TrypLE Express. […]
as §1

[1] = test system: MDA-MB-231 human breast cancer; experiment: MDA-MB-231 breast cancer model; type: in vivo; details: NOD/SCID mice, s.c.; bintrafusp alfa 492 μg i.v. BiWx4; niraparib 50 mg/kg p.o. QDx28; day 41; vs isotype control or monotherapies as stated
Experimental: NOD/SCID mice were subcutaneously inoculated with MDA-MB-231 cells (10×10^6) in the right flank (day −19). […] Tumor volumes were measured twice weekly and presented as mean ±SEM or as individual tumor volumes. P-values were calculated by two-way ANOVA with Tukey's post-test.
MDA-MB-231 (BRCA-wt) cells were obtained from ATCC (ATCC® HTB-26™) and were cultured in Leibovitz's L-15 supplemented with 15% heat inactivated fetal bovine serum, 100 U/ml penicillin and 100 μg/ml streptomycin at 37° C. in an atmosphere of 5% CO2 in air. […] Cells were cultured under aseptic conditions and incubated at 37° C. with 5% CO2. Cells were passaged before in vivo implantation and adherent cells were harvested with TrypLE Express. […]
as §1

[2] = test system: PARP activity in various cell lines; details: cited from earlier work
[3] = test system: MDA-MB-436 human breast cancer cell line; experiment: MDA-MB-436 breast cancer model; type: in vivo; details: NOD/SCID mice, bintrafusp alfa 492 μg i.v. BiWx4, niraparib 35 mg/kg p.o. QDx28
Experimental: NOD/SCID mice were inoculated with MDA-MB-436 cells (10×10^6) in the right flank (day −19). […] Tumor volumes were measured twice weekly and presented as mean ±SEM or as individual tumor volumes. P-values were calculated by two-way ANOVA with Tukey's or Sidak's post-test.
MDA-MB-436 (BRCA1-mut) cells were obtained from American Type Culture Collection (ATCC® HTB-130™) and were cultured in RPMI-1640 supplemented with 10% heat inactivated fetal bovine serum, 100 U/ml penicillin and 100 μg/ml streptomycin at 37° C. in an atmosphere of 5% CO2 in air. […] Cells were cultured under aseptic conditions and incubated at 37° C. with 5% CO2. […]
as §1

| Molecule | tumor growth relative to isotype control or bintrafusp alfa monotherapy, in words (AT-3 cells; C57BL/6 mice, day 13, bintrafusp alfa 492 μg i.v. days 0, 3, 6, niraparib 50 mg/kg p.o. days 0-13) | median survival (AT-3 cells; C57BL/6 mice) [days] | responders (mice with tumor volumes<1 σ of the control group mean) (AT-3 cells) | relative kidney tumor burden: ratio of mass of tumor bearing kidney to bilateral normal kidney (median) (RENCA cells) | tumor growth (tumor volume), in words (B16F10 cells) | tumor growth (tumor volume), in words [1] | inhibitory concentration at 90% of control (1090) of PARP activity in cells ([2]; PARP activity stimulated by DNA damage caused by hydrogen peroxide) [nM] | pIC50 ([2]; read-out: IC50 of PARP activity in cells, PARP activity stimulated by DNA damage caused by hydrogen peroxide) | median time to disease progression after stopping treatment [3] [days] | tumor growth (tumor volume), in words ([3]; vs isotype control or monotherapy as stated, days 41/69) |
| --- | --- | --- | --- | --- | --- | --- | --- | --- | --- | --- |
| bintrafusp alfa: anti-PD-L1:TGFβRII fusion protein; human IgG1 antibody against PD-L1 fused to extracellular domain of human TGF-β receptor II; SEQ ID NO: 7 and 8 | did not significantly reduce tumor growth | 13 | 1/10 | 3.74 | neither bintrafusp alfa nor niraparib monotherapies significantly reduced tumor growth | significantly reduced tumor growth | – | – | – | – |
| NC(=O)c1cccc2cn(-c3ccc([C@@H]4CCCNC4)cc3)nc12 [niraparib, (3S)-3-[4-{7-(aminocarbonyl)-2H-indazol-2-yl}phenyl]piperidine] | – | 13 | 5/10 | – | neither bintrafusp alfa nor niraparib monotherapies significantly reduced tumor growth | significantly reduced tumor growth | ~50 | ~8.40 | 42.5 | significantly inhibited tumor growth |
